This assay deals with NRF2 (NQO1 activity as marker for NRF2 activation), BEAS-2B cells. The assay is described as follows: BEAS-2B NQO1 MTT Assay. Conditions: Homo sapiens, EC50 of NQO1 specific activity induction, 48 hours incubation, read-out: EC50. It is filed as cell-based. The method, boiled down:
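As a marker of NRF2 activation, NQO1 specific activity was read from the rate of absorbance change at 570 nm in MTT cocktail over 30 minutes. Lysates came from BEAS-2B cells treated for 48 hours at 37° C, and EC50 was derived by 3-parameter fitting.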

`CC[C@@H]1CN(Cc2cc([C@@H](c3ccc4c(nnn4CC)c3C)C(C)(C)NC(=O)c3cnc(OCCO)nc3)ccc2C)S(=O)(=O)c2ccccc2O1` [Example 161, N-((S)-1-(3-(((R)-4-Ethyl-1,1-dioxido-3,4-dihydro-2H-benzo[b][1,4,5]oxathiazepin-2-yl)methyl)-4-methylphenyl)-1-(1-ethyl-4-methyl-1H-benzo[d][1,2,3]triazol-5-yl)-2-methylpropan-2-yl)-2-(2-hydroxyethoxy)pyrimidine-5-carboxamide]: the EC50 (commonly the concentration at which the effect is half-maximal) was in the range of 10 to 100 nM.

For the molecule `CC[C@@H]1CN(Cc2cc([C@@H](c3ccc4c(nnn4CC)c3C)C(C)(C)NC(=O)c3cnc(N(C)C)nc3)ccc2C)S(=O)(=O)c2ccccc2O1` [Example 162], the EC50 lay in the range of 10 to 100 nM. As to `CCOCCOc1ncc(C(=O)NC(C)(C)[C@@H](c2ccc(C)c(CN3C[C@@H](CC)Oc4ccccc4S3(=O)=O)c2)c2ccc3c(nnn3CC)c2C)cn1` [Example 163, 2-(2-Ethoxyethoxy)-N-((S)-1-(3-(((R)-4-ethyl-1,1-dioxido-3,4-dihydro-2H-benzo[b][1,4,5]oxathiazepin-2-yl)methyl)-4-methylphenyl)-1-(1-ethyl-4-methyl-1H-benzo[d][1,2,3]triazol-5-yl)-2-methylpropan-2-yl)pyrimidine-5-carboxamide], the EC50 was 1 to 10 nM. The result for `CC[C@@H]1CN(Cc2cc([C@@H](c3ccc4c(nnn4CC)c3C)C(C)(C)NC(=O)c3cnc(N4CCOCC4)nc3)ccc2C)S(=O)(=O)c2ccccc2O1` [Example 164, N-((S)-1-(3-(((R)-4-Ethyl-1,1-dioxido-3,4-dihydro-2H-benzo[b][1,4,5]oxathiazepin-2-yl)methyl)-4-methylphenyl)-1-(1-ethyl-4-methyl-1H-benzo[d][1,2,3]triazol-5-yl)-2-methylpropan-2-yl)-2-morpholinopyrimidine-5-carboxamide] reads 10 to 100 nM; that for `CC[C@@H]1CN(Cc2cc([C@@H](c3ccc4c(nnn4CC)c3C)C(C)(C)NC(=O)c3cnc(N4CCN(C)CC4)nc3)ccc2C)S(=O)(=O)c2ccccc2O1` [Example 165, N-((S)-1-(3-(((R)-4-Ethyl-1,1-dioxido-3,4-dihydro-2H-benzo[b][1,4,5]oxathiazepin-2-yl)methyl)-4-methylphenyl)-1-(1-ethyl-4-methyl-1H-benzo[d][1,2,3]triazol-5-yl)-2-methylpropan-2-yl)-2-(4-methylpiperazin-1-yl)pyrimidine-5-carboxamide], 10 to 100 nM. `CC[C@@H]1CN(Cc2cc([C@@H](c3ccc4c(nnn4CC)c3C)C(C)(C)NC(=O)c3cccnc3)ccc2C)S(=O)(=O)c2cccnc2O1` [Example 166, N—((S)-1-(3-(((R)-4-Ethyl-1,1-dioxido-3,4-dihydro-2H-pyrido[2,3-b][1,4,5]oxathiazepin-2-yl)methyl)-4-methylphenyl)-1-(1-ethyl-4-methyl-1H-benzo[d][1,2,3]triazol-5-yl)-2-methylpropan-2-yl)nicotinamide]: the EC50 lay within 1 to 10 nM. The result for `CC[C@@H]1CN(Cc2cc([C@@H](c3ccc4c(nnn4CC)c3C)C(C)(C)N(C)C(=O)c3cncnc3)ccc2C)S(=O)(=O)c2ccccc2O1` [Example 167, N—((S)-1-(3-(((R)-4-Ethyl-1,1-dioxido-3,4-dihydro-2H-benzo[b][1,4,5]oxathiazepin-2-yl)methyl)-4-methylphenyl)-1-(1-ethyl-4-methyl-1H-benzo[d][1,2,3]triazol-5-yl)-2-methylpropan-2-yl)-N-methylpyrimidine-5-carboxamide] reads 10 to 100 nM. As to `CC[C@@H]1CN(Cc2cc([C@H](CC(=O)N(C)c3cccnc3)c3ccc4c(nnn4CC)c3C)ccc2C)S(=O)(=O)c2cccnc2O1` [Example 169, (S)-3-(3-(((R)-4-ethyl-1,1-dioxido-3,4-dihydro-2H-pyrido[2,3-b][1,4,5]oxathiazepin-2-yl)methyl)-4-methylphenyl)-3-(1-ethyl-4-methyl-1H-benzo[d][1,2,3]triazol-5-yl)-N-methyl-N-(pyridin-3-yl)propanamide], the concentration for a half-maximal effect (EC50) is 100 to 1000 nM. Then `CC[C@@H]1CN(Cc2cc([C@H](CC(=O)Nc3ccccc3)c3ccc4c(nnn4CC)c3C)ccc2C)S(=O)(=O)c2cccnc2O1` [Example 170, (S)-3-(3-(((R)-4-ethyl-1,1-dioxido-3,4-dihydro-2H-pyrido[2,3-b][1,4,5]oxathiazepin-2-yl)methyl)-4-methylphenyl)-3-(1-ethyl-4-methyl-1H-benzo[d][1,2,3]triazol-5-yl)-N-phenylpropanamide], with 100 to 1000 nM; and `CC[C@@H]1CN(Cc2cc([C@H](CC(=O)NC3CCCC3)c3ccc4c(nnn4CC)c3C)ccc2C)S(=O)(=O)c2cccnc2O1` [Example 171, (S)-N-cyclopentyl-3-(3-(((R)-4-ethyl-1,1-dioxido-3,4-dihydro-2H-pyrido[2,3-b][1,4,5]oxathiazepin-2-yl)methyl)-4-methylphenyl)-3-(1-ethyl-4-methyl-1H-benzo[d][1,2,3]triazol-5-yl)propanamide], with 100 to 1000 nM.

For the molecule `CC[C@@H]1CN(Cc2cc([C@H](CC(=O)Nc3ccc(OC)nc3)c3ccc4c(nnn4CC)c3C)ccc2C)S(=O)(=O)c2cccnc2O1` [Example 172, (S)-3-(3-(((R)-4-ethyl-1,1-dioxido-3,4-dihydro-2H-pyrido[2,3-b][1,4,5]oxathiazepin-2-yl)methyl)-4-methylphenyl)-3-(1-ethyl-4-methyl-1H-benzo[d][1,2,3]triazol-5-yl)-N-(6-methoxypyridin-3-yl)propanamide], the EC50 was in the range of 100 to 1000 nM. `Cc1ccc([C@@H](c2ccc3c(nnn3C)c2C)C(C)(C)C(=O)Nc2cccnc2)cc1Cn1ccnc1CC1CCCCCC1` [Example 173, (S)-3-(3-((2-(cycloheptylmethyl)-1H-imidazol-1-yl)methyl)-4-methylphenyl)-3-(1,4-dimethyl-1H-benzo[d][1,2,3]triazol-5-yl)-2,2-dimethyl-N-(pyridin-3-yl)propanamide]: the EC50 was 10 to 100 nM. Then `CCn1nnc2c(C)c([C@@H](CC(=O)Nc3cccnc3)c3ccc(C)c(CN4C[C@@H](C)Cc5ccc(C(F)(F)F)cc5S4(=O)=O)c3)ccc21` [Example 174, (S)-3-(1-ethyl-4-methyl-1H-benzo[d][1,2,3]triazol-5-yl)-3-(4-methyl-3-(((S)-4-methyl-1,1-dioxido-8-(trifluoromethyl)-4,5-dihydrobenzo[f][1,2]thiazepin-2(3H)-yl)methyl)phenyl)-N-(pyridin-3-yl)propanamide], with 10 to 100 nM. The result for `CCC1CCN(Cc2nccn2Cc2cc([C@@H](c3ccc4c(nnn4C)c3C)C(C)(C)C(=O)Nc3cccnc3)ccc2Cl)CC1` [Example 175, (S)-3-(4-chloro-3-((2-((4-ethylpiperidin-1-yl)methyl)-1H-imidazol-1-yl)methyl)phenyl)-3-(1,4-dimethyl-1H-benzo[d][1,2,3]triazol-5-yl)-2,2-dimethyl-N-(pyridin-3-yl)propanamide] reads 100 to 1000 nM.

For the molecule `CC[C@@H]1CN(Cc2cc([C@@H](c3ccc4c(nnn4CC)c3C)[C@@H](C)C(=O)Nc3cccnc3)ccc2C)S(=O)(=O)c2cccnc2O1` [Example 176], the EC50 was 1 to 10 nM.

`CCn1nnc2c(C)c([C@H](c3ccc(C)c(CN4C[C@@H](C)Cc5cc(C(F)(F)F)ccc5S4(=O)=O)c3)[C@@H](C)C(=O)Nc3cccnc3)ccc21` [Example 177, (2R,3S)-3-(1-ethyl-4-methyl-1H-benzo[d][1,2,3]triazol-5-yl)-2-methyl-3-(4-methyl-3-(((S)-4-methyl-1,1-dioxido-7-(trifluoromethyl)-4,5-dihydrobenzo[f][1,2]thiazepin-2(3H)-yl)methyl)phenyl)-N-(pyridin-3-yl)propanamide]: the EC50 is 1 to 10 nM. The result for `CCn1nnc2c(C)c([C@@H](CC(=O)Nc3cccnc3)c3ccc(C)c(CN4C[C@@H](C)Cc5ccc(F)cc5S4(=O)=O)c3)ccc21` [Example 178, (S)-3-(1-ethyl-4-methyl-1H-benzo[d][1,2,3]triazol-5-yl)-3-(3-(((S)-8-fluoro-4-methyl-1,1-dioxido-4,5-dihydrobenzo[f][1,2]thiazepin-2(3H)-yl)methyl)-4-methylphenyl)-N-(pyridin-3-yl)propanamide] reads 10 to 100 nM; that for `CCn1nnc2c(C)c([C@H](c3ccc(C)c(CN4C[C@@H](C)Cc5ccc(C(F)(F)F)cc5S4(=O)=O)c3)[C@@H](C)C(=O)Nc3cccnc3)ccc21` [Example 179, (2R,3S)-3-(1-ethyl-4-methyl-1H-benzo[d][1,2,3]triazol-5-yl)-2-methyl-3-(4-methyl-3-(((S)-4-methyl-1,1-dioxido-8-(trifluoromethyl)-4,5-dihydrobenzo[f][1,2]thiazepin-2(3H)-yl)methyl)phenyl)-N-(pyridin-3-yl)propanamide], 1 to 10 nM. Then `CC[C@H]1Cc2ccc(C(F)(F)F)cc2S(=O)(=O)N(Cc2cc([C@@H](c3ccc4c(nnn4CC)c3C)[C@@H](C)C(=O)Nc3cccnc3)ccc2C)C1` [Example 180, (2R,3S)-3-(3-(((S)-4-ethyl-1,1-dioxido-8-(trifluoromethyl)-4,5-dihydrobenzo[f][1,2]thiazepin-2(3H)-yl)methyl)-4-methylphenyl)-3-(1-ethyl-4-methyl-1H-benzo[d][1,2,3]triazol-5-yl)-2-methyl-N-(pyridin-3-yl)propanamide], with 1 to 10 nM. The result for `CCn1nnc2c(C)c([C@@H](CC(=O)Nc3cccnc3)c3ccc(C)c(CN4C[C@@H](C)Cc5ccc(C(F)(F)F)cc5S4(=O)=O)c3)cc(OC)c21` [Example 181, (S)-3-(1-ethyl-7-methoxy-4-methyl-1H-benzo[d][1,2,3]triazol-5-yl)-3-(4-methyl-3-(((S)-4-methyl-1,1-dioxido-8-(trifluoromethyl)-4,5-dihydrobenzo[f][1,2]thiazepin-2(3H)-yl)methyl)phenyl)-N-(pyridin-3-yl)propanamide] reads 10 to 100 nM; that for `CC[C@@H]1CN(Cc2cc([C@@H](c3ccc4c(nnn4CC)c3C)[C@@H](C)C(N)=O)ccc2C)Cc2ncccc2O1` [Example 182, (2R,3S)-3-(3-(((R)-2-ethyl-2,3-dihydropyrido[2,3-f][1,4]oxazepin-4(5H)-yl)methyl)-4-methylphenyl)-3-(1-ethyl-4-methyl-1H-benzo[d][1,2,3]triazol-5-yl)-2-methylpropanamide], 100 to 1000 nM.
